What was measured:
Settings in all cases: Homo sapiens
CEM-TK(-) [1] = test: Compound was tested for anti-HIV-2 activity in CEM/TK- cell line; type: functional, cell-based
CCRF-CEM [2] = test: Compound was tested for anti-HIV-1 activity in CEM/0 cell line; type: functional, cell-based
CCRF-CEM [3] = test: Compound was tested for cytostatic activity in CEM cell line; type: functional
CCRF-CEM [4] = test: Compound was tested for anti-HIV-2 activity in CEM/0 cell line; type: functional, cell-based
CEM-TK(-) [5] = test: Compound was tested for anti-HIV-2 activity in CEM/TK- cell line.; type: functional, cell-based
CCRF-CEM [6] = test: Compound was tested for anti-HIV-2 activity in CEM/0 cell line.; type: functional, cell-based
CCRF-CEM [7] = test: Compound was tested for anti-HIV-1 activity in CEM/0 cell line.; type: functional, cell-based
CCRF-CEM [8] = test: Compound was tested for cytostatic activity in CEM cell line.; type: functional

Row | Structure (SMILES) | EC50 (CEM-TK(-) [1]) | EC50 (CCRF-CEM [2]) | CC50 (CCRF-CEM [3]) | EC50 (CCRF-CEM [4]) | EC50 (CEM-TK(-) [5]) | EC50 (CCRF-CEM [6]) | EC50 (CCRF-CEM [7]) | CC50 (CCRF-CEM [8])
1 | Cc1cn([C@H]2C=C[C@@H](CO)O2)c(=O)[nH]c1=O [STAVUDINE] | > 100 µM | 0.25 µM | > 100 µM | 1.2 µM | – | – | – | –
2 | COC(=O)C(C)OP(=O)(OCC1C=CC(n2cc(C)c(=O)[nH]c2=O)O1)Oc1ccccc1 (centres undefined) | – | – | – | – | > 250 µM | 5 µM | 4 µM | ≥ 250 µM
3 | COC(=O)COP(=O)(OCC1C=CC(n2cc(C)c(=O)[nH]c2=O)O1)Oc1ccccc1 (centres undefined) | – | – | – | – | > 250 µM | 50 µM | 27.5 µM | > 250 µM
4 | CCOC(=O)C(C)OP(=O)(OCC1C=CC(n2cc(C)c(=O)[nH]c2=O)O1)Oc1ccccc1 (centres undefined) | – | – | – | – | 160 µM | 23 µM | 28 µM | > 250 µM
5 | COC(=O)CNP(=O)(OCC1C=CC(n2cc(C)c(=O)[nH]c2=O)O1)Oc1ccccc1 (centres undefined) | – | – | – | – | 7 µM | – | – | ≥ 250 µM
6 | COC(=O)C(C)NP(=O)(OC[C@@H]1C=C[C@H](n2cc(C)c(=O)[nH]c2=O)O1)Oc1ccccc1 (some centres undefined) | – | – | – | – | 0.075 µM | – | – | > 100 µM
7 | CCOC(=O)COP(=O)(OCC1C=CC(n2cc(C)c(=O)[nH]c2=O)O1)Oc1ccccc1 (centres undefined) | – | – | – | – | 150 µM | 12.5 µM | 12.5 µM | ≥ 250 µM

Source: ChEMBL document CHEMBL1130640, “Lactate cannot substitute for alanine in d4T-based anti-HIV nucleotide prodrugs--despite efficient esterase-mediated hydrolysis” (Bioorg Med Chem Lett, 1998)
